Reference: ChEMBL document CHEMBL3045835, “Comparative study of conventional and microwave-assisted synthesis of some Schiff bases and their potential as antimicrobial agents” (2012)
≈ marks a conversion by molar mass, not a printed value.

What was measured:
Assay type in all cases: functional
Bacillus pumilus [1] = assay: Antibacterial activity against Bacillus pumilus MTCC 1456 at 200 ug/ml after 18 hr by cup-plate method; settings: MTCC 1456, 18 h, read-out: DIZ
Bacillus subtilis [2] = assay: Antibacterial activity against Bacillus subtilis MTCC 441 at 100 ug/ml after 18 hr by cup plate method; settings: MTCC 441, 18 h, read-out: DIZ
Escherichia coli [3] = assay: Antibacterial activity against Escherichia coli MTCC 1573 at 100 ug/ml after 18 hr by cup-plate method; settings: MTCC 1573, 18 h, read-out: DIZ
Pseudomonas aeruginosa [4] = assay: Antibacterial activity against Pseudomonas aeruginosa MTCC 424 at 200 ug/ml after 18 hr by cup-plate method; settings: MTCC 424, 18 h, read-out: DIZ
Bacillus pumilus [5] = assay: Antibacterial activity against Bacillus pumilus MTCC 1456 at 1500 ug/ml after 18 hr by cup-plate method; settings: MTCC 1456, 18 h, read-out: DIZ
Staphylococcus aureus [6] = assay: Antibacterial activity against Staphylococcus aureus MTCC 1430 at 500 ug/ml after 18 hr by cup-plate method; settings: MTCC 1430, 18 h, read-out: DIZ
Staphylococcus aureus [7] = assay: Antibacterial activity against Staphylococcus aureus MTCC 1430 at 1500 ug/ml after 18 hr by cup-plate method; settings: MTCC 1430, 18 h, read-out: DIZ
Bacillus subtilis [8] = assay: Antibacterial activity against Bacillus subtilis MTCC 441 after 24 hr by broth dilution method; settings: MTCC 441, 24 h
Pseudomonas fluorescens [9] = assay: Antibacterial activity against Pseudomonas fluorescens MTCC 2421 at 1500 ug/ml after 18 hr by cup-plate method; settings: MTCC 2421, 18 h, read-out: DIZ
Aspergillus niger [10] = assay: Antifungal activity against Aspergillus niger MTCC 2546 after 24 hr by broth dilution method; settings: MTCC 2546, 24 h
Penicillium chrysogenum [11] = assay: Antifungal activity against Penicillium chrysogenum MTCC 161 at 500 ug/ml after 18 hr by cup-plate method; settings: MTCC 161, 18 h, read-out: DIZ
Bacillus subtilis [12] = assay: Antibacterial activity against Bacillus subtilis MTCC 441 at 1000 ug/ml after 18 hr by cup plate method; settings: MTCC 441, 18 h, read-out: DIZ
Pseudomonas aeruginosa [13] = assay: Antibacterial activity against Pseudomonas aeruginosa MTCC 424 after 24 hr by broth dilution method; settings: MTCC 424, 24 h
Aspergillus niger [14] = assay: Antifungal activity against Aspergillus niger MTCC 2546 at 100 ug/ml after 18 hr by cup-plate method; settings: MTCC 2546, 18 h, read-out: DIZ
Bacillus subtilis [15] = assay: Antibacterial activity against Bacillus subtilis MTCC 441 at 200 ug/ml after 18 hr by cup plate method; settings: MTCC 441, 18 h, read-out: DIZ
Staphylococcus aureus [16] = assay: Antibacterial activity against Staphylococcus aureus MTCC 1430 at 1000 ug/ml after 18 hr by cup-plate method; settings: MTCC 1430, 18 h, read-out: DIZ
Penicillium chrysogenum [17] = assay: Antifungal activity against Penicillium chrysogenum MTCC 161 at 1000 ug/ml after 18 hr by cup-plate method; settings: MTCC 161, 18 h, read-out: DIZ
Pseudomonas fluorescens [18] = assay: Antibacterial activity against Pseudomonas fluorescens MTCC 2421 at 500 ug/ml after 18 hr by cup-plate method; settings: MTCC 2421, 18 h, read-out: DIZ
Penicillium chrysogenum [19] = assay: Antifungal activity against Penicillium chrysogenum MTCC 161 after 24 hr by broth dilution method; settings: MTCC 161, 24 h
Aspergillus niger [20] = assay: Antifungal activity against Aspergillus niger MTCC 2546 at 1000 ug/ml after 18 hr by cup-plate method; settings: MTCC 2546, 18 h, read-out: DIZ
Pseudomonas fluorescens [21] = assay: Antibacterial activity against Pseudomonas fluorescens MTCC 2421 at 1000 ug/ml after 18 hr by cup-plate method; settings: MTCC 2421, 18 h, read-out: DIZ
Bacillus pumilus [22] = assay: Antibacterial activity against Bacillus pumilus MTCC 1456 at 1000 ug/ml after 18 hr by cup-plate method; settings: MTCC 1456, 18 h, read-out: DIZ
Pseudomonas aeruginosa [23] = assay: Antibacterial activity against Pseudomonas aeruginosa MTCC 424 at 500 ug/ml after 18 hr by cup-plate method; settings: MTCC 424, 18 h, read-out: DIZ
Pseudomonas fluorescens [24] = assay: Antibacterial activity against Pseudomonas fluorescens MTCC 2421 after 24 hr by broth dilution method; settings: MTCC 2421, 24 h
Aspergillus niger [25] = assay: Antifungal activity against Aspergillus niger MTCC 2546 at 1500 ug/ml after 18 hr by cup-plate method; settings: MTCC 2546, 18 h, read-out: DIZ
Escherichia coli [26] = assay: Antibacterial activity against Escherichia coli MTCC 1573 at 200 ug/ml after 18 hr by cup-plate method; settings: MTCC 1573, 18 h, read-out: DIZ
Micrococcus luteus = assay: Antibacterial activity against Micrococcus luteus MTCC 1538 at 100 ug/ml after 18 hr by cup-plate method; settings: MTCC 1538, 18 h, read-out: DIZ

Molecule O=c1c(/C=N/c2ccc(Cl)cc2)coc2ccccc12 has a zone of inhibition at 200 µg/mL (Bacillus pumilus [1]) of 15 mm, a zone of inhibition at 100 µg/mL (Bacillus subtilis [2]) of 13 mm and a zone of inhibition at 100 µg/mL (Escherichia coli [3]) of 13 mm. It also gave a zone of inhibition at 200 µg/mL (Pseudomonas aeruginosa [4]) of 18 mm, a zone of inhibition at 1500 µg/mL (Bacillus pumilus [5]) of 19 mm and a zone of inhibition at 500 µg/mL (Staphylococcus aureus [6]) of 16 mm. It also gave a zone of inhibition at 1500 µg/mL (Staphylococcus aureus [7]) of 21 mm, an MIC (Bacillus subtilis [8]) of 300 µg/mL (≈ 1060 µM) and a zone of inhibition at 1500 µg/mL (Pseudomonas fluorescens [9]) of 18 mm. For the same molecule, the MIC (Aspergillus niger [10]) was 200 µg/mL (≈ 705 µM), the zone of inhibition at 500 µg/mL (Penicillium chrysogenum [11]) was 19 mm and the zone of inhibition at 1000 µg/mL (Bacillus subtilis [12]) was 19 mm. The MIC (Pseudomonas aeruginosa [13]) was 200 µg/mL (≈ 705 µM), the zone of inhibition at 100 µg/mL (Aspergillus niger [14]) was 16 mm and the zone of inhibition at 200 µg/mL (Bacillus subtilis [15]) was 15 mm. The zone of inhibition at 1000 µg/mL (Staphylococcus aureus [16]) was 18 mm, the zone of inhibition at 1000 µg/mL (Penicillium chrysogenum [17]) was 20 mm and the zone of inhibition at 500 µg/mL (Pseudomonas fluorescens [18]) was 14 mm. For the same molecule, the MIC (Penicillium chrysogenum [19]) was 200 µg/mL (≈ 705 µM), the zone of inhibition at 1000 µg/mL (Aspergillus niger [20]) was 20 mm and the zone of inhibition at 1000 µg/mL (Pseudomonas fluorescens [21]) was 16 mm. It also gave a zone of inhibition at 1000 µg/mL (Bacillus pumilus [22]) of 18 mm, a zone of inhibition at 500 µg/mL (Pseudomonas aeruginosa [23]) of 19 mm and an MIC (Pseudomonas fluorescens [24]) of 300 µg/mL (≈ 1060 µM). For the same molecule, the zone of inhibition at 1500 µg/mL (Aspergillus niger [25]) was 21 mm, the zone of inhibition at 200 µg/mL (Escherichia coli [26]) was 16 mm and the zone of inhibition at 100 µg/mL (Micrococcus luteus) was 16 mm.
